“Also recorded” adds a separate entry of the source. Where two headings read alike, the source gives them in different places.
Tests used:
[1] = tested on: conditions associated with thalamocortical dysrhythmia; experiment: TMS/Ketamine combination treatment of patients (Example 1)
Method: Thirty-five patients were treated with a combination of ketamine and TMS. […] For simplicity of presentation in Table 2, patients receiving treatment more than once a week are shown as receiving a single treatment for that week. Also, intervals are rounded to the nearest week.
Others received a priming TMS treatment prior to the combination treatment. Some patients received neither pretreatment nor priming, although most patients received one or the other. Since the priming treatment is less rigorous than several days of pretreatment, all patients receiving pretreatment were ultimately switched to priming or neither. Pretreatment and or priming treatment were administered based upon diagnosis and patient compliance.

depression = settings: ketamine alone, cited from earlier work
[2] = tested on: obsessive-compulsive disorder (OCD); settings: OCD patients infused with ketamine; compared with depression and CRPS; Pittenger et al. 2012; cited from earlier work
[3] = tested on: conditions associated with thalamocortical dysrhythmia; experiment: TLVES/Ketamine combination treatment of patients (Example 2); settings: all three patients; tACS or tRNS 20 minutes; ketamine total dose 0.5-5.0 mg per kg infused over 15-50 minutes
[4] = patient B3, Unipolar Depression & ADD, ketamine combined with TMS
[5] = patient B6, Bipolar Depression, ketamine combined with TMS
[6] = patient B23, Fibromyalgia, PTSD, mixed connective tissue disease, ketamine combined with TMS
[7] = patient B26, Bipolar Disorder, poly-substance abuse, ketamine combined with TMS
[8] = patient C11, Tourette's and secondary depression, ketamine combined with TMS
[9] = patient D8, OCD & secondary depression, ketamine combined with TMS
[10] = patient D20, Depression & frontal lobe disorder, ketamine combined with TMS
[11] = patient H2, Bipolar Depression, ketamine combined with TMS
[12] = patient K10, CRPS & regulatory disorder of childhood, ketamine combined with TMS
[13] = patient N7, Multiple head injuries and depression, ketamine combined with TMS
[14] = patient N13, Bipolar Disorder & chronic neck and back pain, ketamine combined with TMS
[15] = patient N14, Unipolar Depression, ADD, alcohol abuse, concussion, ketamine combined with TMS
[16] = patient N30, Depression, fibromyalgia, back pain, ketamine combined with TMS
[17] = patient O34, ADHD, concussion, back pain, substance abuse, ketamine combined with TMS
[18] = patient Q9, Bipolar Depression, ketamine combined with TMS
[19] = patient R17, Childhood depression, PTSD, poly-substance abuse, ketamine combined with TMS
[20] = patient R32, OCD & secondary depression, poly-substance abuse, ketamine combined with TMS
[21] = patient S1, Generalized anxiety & secondary depression, ketamine combined with TMS
[22] = patient S36, Depression, panic attacks, ketamine combined with TMS
[23] = patient T15, Bipolar Depression, ketamine combined with TMS
[24] = patient T29, Bipolar Disorder, dormant poly-substance abuse, ketamine combined with TMS
[25] = patient W24, Depression, ketamine combined with TMS
[26] = patient Z4, Unipolar Depression & ADD, ketamine combined with TMS
[27] = patient Z27, Childhood onset bipolar disorder, ADD, RSD, ketamine combined with TMS
[28] = patient, Bipolar Disorder, poly-substance abuse, ketamine combined with TMS
[29] = patient, Depression & poly-substance abuse, ketamine combined with TMS
[30] = patient, Unipolar Depression & minor epilepsy, ketamine combined with TMS
[31] = patients having positive outcomes, ketamine combined with TMS

CNC1(c2ccccc2Cl)CCCCC1=O (racemic) [ketamine, (RS)-2-(2-Chlorophenyl)-2-(methylamino)cyclohexanone]
Outcome of the patients that completed treatment ([1]; all of the 28 patients that completed treatment, of thirty-five treated, ketamine combined with TMS): positive outcome
Outcome [1, 4]: entered graduate school, got out of abusive relationship
Overall Response [1, 4]: excellent
Outcome [1, 5]: entered graduate school, began to date for first time
Overall Response [1, 5]: excellent
Outcome [1, 6]: off pain medicine, calm, more active
Outcome: adverse effect [1, 6]: experienced severe nausea
Overall Response [1, 6]: excellent
Outcome [1, 7]: returned to college, got married
Overall Response [1, 7]: excellent
Outcome [1, 8]: off of inappropriate medicines, calm, in school
Overall Response [1, 8]: good
Outcome [1, 9]: back to work and active family life
Overall Response [1, 9]: good
Outcome [1, 10]: depression lifted, apathy lifted, pace of thought improved
Overall Response [1, 10]: excellent
Outcome [1, 11]: returned to home-life and active mothering
Overall Response [1, 11]: good
Outcome [1, 12]: off of opioid narcotics, entered trade school, saved subject's life
Overall Response [1, 12]: excellent
Outcome [1, 13]: off of all opioid narcotics, back to church life
Overall Response [1, 13]: excellent
Outcome [1, 14]: off of all opioid narcotics, calm, walking well
Overall Response [1, 14]: very good
Outcome [1, 15]: calm, repaired broken business & family life, sober
Overall Response [1, 15]: very good
Outcome [1, 16]: off opioid narcotics, not depressed, traveling
Overall Response [1, 16]: excellent
Outcome [1, 17]: did very well, significant other coaxed subject back to substance; also recorded: abuse
Overall Response [1, 17]: excellent
Outcome [1, 18]: back to work, repaired broken marriage
Overall Response [1, 18]: excellent
Outcome [1, 19]: learned to read, entered college, sober
Overall Response [1, 19]: excellent
Outcome [1, 20]: sober, calm, back to college
Overall Response [1, 20]: excellent
Outcome [1, 21]: returned to college, sober
Overall Response [1, 21]: excellent
Outcome [1, 22]: did very well, repaired broken marriage and family
Overall Response [1, 22]: excellent
Outcome [1, 23]: back to church life and active family life
Overall Response [1, 23]: excellent
Outcome [1, 24]: entered graduate school, running family business, still sober
Overall Response [1, 24]: excellent
Outcome [1, 25]: back to work and active family life
Overall Response [1, 25]: excellent
Outcome [1, 26]: no longer bedridden, left bad marriage
Overall Response [1, 26]: very good
Outcome [1, 27]: sober, calm, entered college and at work part-time
Overall Response [1, 27]: very good
Outcome [1, 28]: calm, still in early stage of treatment
Overall Response [1, 28]: very good
Outcome [1, 29]: sober, active with family business
Overall Response [1, 29]: excellent
Outcome [1, 30]: relapsed
Overall Response [1, 30]: good
Adverse side effects [1, 31]: reduced adverse side effects
Durability of the positive result [1, 31]: more robust, i.e., long lasting, positive result; also recorded: lasting result
Percentage of patients with positive outcome compared with success rate reported for TMS alone or ketamine alone ([1]; patients that completed treatment, ketamine combined with TMS): higher
Response to previous TMS/ketamine treatment ([1]; three more frail, less robust patients later given TLVES/ketamine): significantly improved
Lasting relief from suicidality or depression (depression): highly transitory
Success rate in the treatment of depression (depression; dosages reportedly 5-15 times higher than with TMS): 60-70%
Lasting relief from suicidality or depression (depression; listed as Ketamine): does not, however, appear to provide lasting relief from suicidality or depression
Effectiveness in treating depression (depression; patients with bipolar disorder who have not responded to anti-depressants): effective
Time to rapid antidepressant effect (depression; persons with major depressive disorder (and bipolar depression)): two
Benefit in OCD patients [2]: rather more limited
Post-treatment fatigue compared with TMS/ketamine [3]: less of the post-treatment fatigue
Therapeutic benefit compared with TMS/ketamine [3]: same therapeutic benefits as TMS/ketamine
